In paper PMC4129416, “YLT192, a Novel, Orally Active Bioavailable Inhibitor of VEGFR2 Signaling with Potent Antiangiogenic Activity and Antitumor Efficacy in Preclinical Models” (Scientific Reports, 2014):
Entries after “also recorded” stand apart in the source; their conditions may differ.

How the values were obtained:
Acute toxicity test = type: in vivo; conditions: rats
Method: All the HCT116 model mice were sacrificed after 24 days of treatment.
Acute toxicity test was done to investigate the safety profiles of YLT192 on rats. Briefly, 7–8 week old female and male rats (n = 10, respectively) were orally administrated with YLT192 at 3000 mg/kg. Then clinical symptoms of the rats including mortality, body weight and gross findings were observed once daily for 14 days. On day 14, the rats were sacrificed and examined by necropsy.

[1] = system: zebrafish intersegmental vessels; test: Transgenic zebrafish (FLK-1: EGFP) embryonic angiogenesis model; type: in vivo; conditions: 5 μM; zebrafish embryos treated 15 hpf, imaged 30 hpf
Excerpt: To test the anti-angiogenesis effects of YLT192 in vivo, we used a FLK-1 promoter enhanced green fluorescent protein (EGFP) transgenic zebrafish model.
Figure 3 YLT192 inhibited angiogenesis in vivo. (A) Fluorescent images of 30 hpf zebrafish treated with vehicle or concentrations of YLT192. ISV growth was inhibited by YLT192. One representative experiment of three is shown. Data are means ± SEM (n = 10 per group), *P < 0.05, **P < 0.01. Scale bars represent 100 μm. […] Frozen sections of HCT116 tumors were tested by immunohistochemistry analysis with anti-CD31 antibody. Representative images of the tumor vasculature from vehicle and YLT192 treated mice were shown. The fields were averaged in each tumor, and the averages for each animal were used to give the final mean ± SD (n = 6 mice per group). *P < 0.05, **P < 0.01. Scale bars represent 100 μm. […] Alginate beads containing 5 × 10^4 CT26 cells were implanted s.c. into the backs of mice. Mice were then orally treated with YLT192 or vehicle once daily. Beads were surgically removed 14 days later and FITC-dextran was quantified. […] Data are means ± SD (n = 6 mice per group), *P < 0.05, **P < 0.01. Scale bars represent 500 μm.
The transgenic zebrafish (FLK-1: EGFP) was used in the experiments. The embryos were grown and maintained as described previously. […]

BxPC-3 = test: Inhibition of tumor cell growth; type: cell-based; conditions: BxPC-3, human pancreatic cancer; 48 hour treatment; means ± SD, n=3
Method: (§1) The proliferative inhibitory ability of YLT192 on tumor cells was investigated. […] Inhibition of cell proliferation is a possible approach for cancer treatment. EdU incorporation assay was performed to investigate the anti-proliferative effects of YLT192 against U251 and HCT116 cells.
(§2) treatment with YLT192. Data are means ± SD, n=3.
(§3) cell line cell type IC50(μM) […]

PANC-1 = test: Inhibition of tumor cell growth; type: cell-based; conditions: PANC-1, human pancreatic cancer; 48 hour treatment; means ± SD, n=3
Method: as §1, §2, §3

Hep G2 = test: Inhibition of tumor cell growth; type: cell-based; conditions: HepG2; Hep G2, human hepatocellular carcinoma; 48 hour treatment; means ± SD, n=3
Method: as §1, §2, §3

B16 = test: Inhibition of tumor cell growth; type: cell-based; conditions: B16, mouse melanoma; 48 hour treatment; means ± SD, n=3
Method: (§4) The proliferative inhibitory ability of YLT192 on tumor cells was investigated. […] Inhibition of cell proliferation is a possible approach for cancer treatment. EdU incorporation assay was performed to investigate the anti-proliferative effects of YLT192 against U251 and HCT116 cells. […]
(§5) treatment with YLT192. Data are means ± SD, n=3. cell line cell type IC50(μM)
(§6) HCT116 human colorectal carcinoma 7.4 ±0.5
(§7) A431 human pidermoid carcinoma 7.7 ±0.9
(§8) BxPC-3 human pancreatic cancer 8.2 ±0.6
(§9) Hep G2 human hepatocellular carcinoma 7.9 ±0.5
(§10) SW620 human colorectal carcinoma 7.9 ±1.7
(§11) SKOV-3 human ovarian carcinoma 8.2 ±1.5
(§12) LS147T human colorectal carcinoma 9.0 ±1.1
(§13) PANC-1 human pancreatic cancer 9.8 ±1.9
(§14) BEL7402 human hepatocellular carcinoma 11.3 ±1.1
(§15) MDA-MB-231 human mammary carcinoma 11.9 ±2.1
(§16) SMMC-7721 human hepatocellular carcinoma 12.1 ±1.6
(§17) SPC-A1 human lung cancer 16.4 ±1.4
(§18) MCF-7 human mammary carcinoma 16.8 ±1.7
(§19) Hela human epithelial carcinoma 18.9 ±2.4
(§20) MV4-11 human acute myeloid leukemia 21.9 ±1.9
(§21) COLO-205 human colorectal carcinoma 23.0 ±1.5

A375 = test: Inhibition of tumor cell growth; type: cell-based; conditions: A-375; A375, human melanoma; 48 hour treatment; means ± SD, n=3
Method: as §4, §5, §6, §7, §8, §9, §10, §11, §12, §13, §14, §15, §16, §17, §18, §19, §20, §21

DU145 = test: Inhibition of tumor cell growth; type: cell-based; conditions: DU-145; DU145, human prostate cancer; 48 hour treatment; means ± SD, n=3
Method: as §4, §5, §6, §7, §8, §9, §10, §11, §12, §13, §14, §15, §16, §17, §18, §19, §20, §21

NIH-H1975 = test: Inhibition of tumor cell growth; type: cell-based; conditions: NIH-H1975, human lung cancer; 48 hour treatment; means ± SD, n=3
Method: as §4, §5, §6, §7, §8, §9, §10, §11, §12, §13, §14, §15, §16, §17, §18, §19, §20, §21

U251 = test: Inhibition of tumor cell growth; type: cell-based; conditions: U-251; U251, human glioblastoma; 48 hour treatment; means ± SD, n=3
Method: as §4, §5, §6, §7, §8, §9, §10, §11, §12, §13, §14, §15, §16, §17, §18, §19, §20, §21

VEGFR2 = VEGFR2 (Homo sapiens, UniProt P35968); test: Cellular thermal shift assay (target engagement) in intact HUVECs; type: binding; set-up: stabilize the target in intact HUVECs; endogenous in cells; host or cells: primary HUVECs (passages 3-8); conditions: 40 μM, 3 h, 40-49°C
VEGFR2, sequence (P35968 20-1356): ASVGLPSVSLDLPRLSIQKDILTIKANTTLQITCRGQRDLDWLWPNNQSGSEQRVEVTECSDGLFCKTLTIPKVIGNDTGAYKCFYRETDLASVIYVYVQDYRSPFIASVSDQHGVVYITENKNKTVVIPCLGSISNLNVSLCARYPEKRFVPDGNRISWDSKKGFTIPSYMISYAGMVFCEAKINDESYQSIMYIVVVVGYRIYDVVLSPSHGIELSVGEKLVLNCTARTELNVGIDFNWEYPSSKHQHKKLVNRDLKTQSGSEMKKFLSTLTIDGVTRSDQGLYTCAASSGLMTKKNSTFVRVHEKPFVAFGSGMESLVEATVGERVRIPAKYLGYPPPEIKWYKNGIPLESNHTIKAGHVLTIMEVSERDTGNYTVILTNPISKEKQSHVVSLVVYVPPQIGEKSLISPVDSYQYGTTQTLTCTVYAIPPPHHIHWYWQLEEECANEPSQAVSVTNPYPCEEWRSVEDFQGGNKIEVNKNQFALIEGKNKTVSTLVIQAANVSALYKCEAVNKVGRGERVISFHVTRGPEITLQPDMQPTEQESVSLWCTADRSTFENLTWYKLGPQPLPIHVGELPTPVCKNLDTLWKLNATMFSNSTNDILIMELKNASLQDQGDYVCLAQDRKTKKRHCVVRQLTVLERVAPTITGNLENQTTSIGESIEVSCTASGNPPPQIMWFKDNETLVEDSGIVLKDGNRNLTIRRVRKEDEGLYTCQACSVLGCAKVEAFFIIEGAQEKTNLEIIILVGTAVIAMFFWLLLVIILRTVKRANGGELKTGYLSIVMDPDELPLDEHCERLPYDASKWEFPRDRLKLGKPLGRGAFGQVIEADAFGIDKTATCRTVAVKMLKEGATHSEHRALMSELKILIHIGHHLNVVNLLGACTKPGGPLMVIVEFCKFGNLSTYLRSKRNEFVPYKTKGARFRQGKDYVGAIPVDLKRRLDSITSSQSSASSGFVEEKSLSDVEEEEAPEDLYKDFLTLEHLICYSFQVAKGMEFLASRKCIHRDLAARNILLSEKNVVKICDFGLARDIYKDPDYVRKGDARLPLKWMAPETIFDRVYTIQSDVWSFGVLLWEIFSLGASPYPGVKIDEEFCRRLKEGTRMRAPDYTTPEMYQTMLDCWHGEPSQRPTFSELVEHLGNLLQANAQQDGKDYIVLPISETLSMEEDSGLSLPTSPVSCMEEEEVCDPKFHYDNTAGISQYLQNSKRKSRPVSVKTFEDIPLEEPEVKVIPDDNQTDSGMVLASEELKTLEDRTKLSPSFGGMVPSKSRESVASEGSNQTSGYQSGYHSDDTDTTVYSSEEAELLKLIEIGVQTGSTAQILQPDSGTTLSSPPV
Method: Then we investigate whether YLT192 bind to VEGFR2 in intact HUVECs. If VEGFR2 is bound by YLT192, it will be stabilized by the physical engagement.
The ability of YLT192 to interact with, and thereby stabilize the target in intact HUVECs, was evaluated as described by Molina et al.[22] with some modifications. Briefly, subconfluent HUVECs were incubated with 40 μM YLT192 or vehicle for 3 h. Then the cells were detached with trypsin and collected in TBS containing complete protease inhibitor cocktail. The cells were divided into 4 aliquots and heated individually at 40, 43, 46, 49°C for 3 minutes. Subsequently, the cell suspensions were freeze-thawed three times using liquid nitrogen. Soluble proteins were separated from the precipitated fraction by centrifugation at 17,000 g for 20 min. The proteins were then detected with immunoblot analysis using the VEGFR2-antibody.

HCT116 = test: Inhibition of tumor cell growth; type: cell-based; conditions: HCT-116; HCT116, human colorectal carcinoma; 48 hour treatment; means ± SD, n=3
Excerpt: Data are means ± SD, n=3.
cell line cell type IC50(μM)

Compound: CNC(=O)c1cc(Oc2ccc(NC(=O)c3cccc(OC)c3)cc2)ccn1 [YLT192]
- NOAEL at 14 days (Acute toxicity test; both sexes, rat, in vivo, single oral 3000 mg/kg, 14 days observation, read-out: No Observed Adverse Effect Level (NOAEL)): > 3000 mg/kg
- mortality, clinical signs, and body weight (Acute toxicity test; oral 3000 mg/kg, 14 days): no obvious changes were observed
- formation of intersegmental vessels [1]: considerably blocked; also recorded: significantly inhibited
- IC50 (BxPC-3): 8.2 ± 0.6 µM
- IC50 (PANC-1): 9.8 ± 1.9 µM
- IC50 (Hep G2): 7.9 ± 0.5 µM
- IC50 (B16): 21.2 ± 2.1 µM
- IC50 (A375): 12.4 ± 1.1 µM
- IC50 (DU145): 22.8 ± 2.6 µM
- IC50 (NIH-H1975): 27.3 ± 1.2 µM
- IC50 (U251): 6.5 ± 0.8 µM
- thermal stabilization of VEGFR2 (VEGFR2): efficiently stabilized VEGFR2
- IC50 (HCT116): 7.4 ± 0.5 µM
